Patent US10577363B2, “Substituted piperidine compounds” (EPIZYME, INC., priority 2014, dated 2020)

Columns and labels:
[1] = target: T1, SMYD3 (Homo sapiens (Human), UniProt Q9H7B4); experiment: SMYD3 cell assay (Trimethyl-MEKK2 In-Cell Western in 293T/17 cells); type: cell-based; conditions: read-out: SMYD3 Cell IC50*
Summary of the method: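 In-Cell Western ratio of trimethyl-Lys260 MEKK2 to anti-flag signal; percent inhibition from DMSO and maximum-inhibition controls, IC50 by non-linear regression, triplicates.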

[2] = target: T1, SMYD3; experiment: SMYD3 biochemical assay (SPA, 3H-SAM methylation of MEKK2 protein substrate); conditions: read-out: SMYD3 Biochem IC50*
Summary of the method: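 Full-length native human SMYD3 (E. coli-expressed, tags removed) preincubated with compounds 30 min at room temperature, then reaction started with 3H-SAM and GST-tagged MEKK2 protein in 25 mM Tris-Cl pH 8.0, 1 mM TCEP, 0.005% BSG, 0.005% Tween 20. Quenched with unlabelled SAM (100 uM final); 3H-MEKK2 counted by SPA.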

[3] = IC50 values are an average of n = 1 to n = 50

T1 sequence (Q9H7B4 whole entry): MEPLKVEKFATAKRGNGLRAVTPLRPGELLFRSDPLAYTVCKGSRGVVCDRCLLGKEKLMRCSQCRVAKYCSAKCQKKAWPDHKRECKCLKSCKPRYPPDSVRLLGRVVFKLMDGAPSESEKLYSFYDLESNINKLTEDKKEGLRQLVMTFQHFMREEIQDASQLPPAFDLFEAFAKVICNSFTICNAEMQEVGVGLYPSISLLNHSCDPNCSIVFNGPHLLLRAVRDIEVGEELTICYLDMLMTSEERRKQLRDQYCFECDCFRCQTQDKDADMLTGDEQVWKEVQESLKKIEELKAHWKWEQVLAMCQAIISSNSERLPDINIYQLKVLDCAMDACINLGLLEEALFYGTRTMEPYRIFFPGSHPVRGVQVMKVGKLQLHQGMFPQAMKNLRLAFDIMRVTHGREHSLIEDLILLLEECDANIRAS

Row | IC50 [1] | IC50 [2] | Compound | IC50 [1, 3] | IC50 [2, 3]
1 | 1200 nM | 86.8 nM | O=C(N[C@H]1CCN(S(=O)(=O)N2CCNCC2)[C@@H](Cc2ccccc2)C1)c1cc(C2CC2)on1 [compound 966, N-((2S,4S)-2-benzyl-1-(piperazin-1-ylsulfonyl)piperidin-4-yl)-5-cyclopropylisoxazole-3-carboxamide] |  | 
2 |  |  | O=C(N[C@H]1C[C@H]2CC[C@@H](C1)N2S(=O)(=O)N1CC2CCC(C1)N2CCN1CCOCC1)c1cc(C2CC2)on1 [compound 967, 5-cyclopropyl-N-((1R,3r,5S)-8-((8-(2-morpholinoethyl)-3,8-diazabicyclo[3.2.1]octan-3-yl)sulfonyl)-8-azabicyclo[3.2.1]octan-3-yl)isoxazole-3-carboxamide] | 503 nM | 87 nM
3 |  |  | NCc1ccc(S(=O)(=O)N2[C@@H]3CC[C@H]2C[C@@H](NC(=O)c2cc(C4CC4)on2)C3)c(Cl)c1 [compound 968, N-((1R,3r,5S)-8-((4-(aminomethyl)-2-chlorophenyl)sulfony1)-8-azabicyclo[3.2.1]octan-3-yl)-5-cyclopropylisoxazole-3-carboxamide] | ≥ 10000 nM | 88.3 nM
4 |  |  | CN1CCC[C@@H]1CS(=O)(=O)N1[C@@H]2CC[C@H]1C[C@@H](NC(=O)c1cc(C3CC3)on1)C2 [compound 969, 5-cyclopropyl-N-((1R,3R,5S)-8-((((R)-1-methylpyrrolidin-2-yl)methyl)sulfonyl)-8-azabicyclo[3.2.1]octan-3-yl)isoxazole-3-carboxamide] | 440 nM | 88.6 nM
5 |  |  | CCc1cc(C(=O)N[C@H]2C[C@H]3CC[C@@H](C2)N3S(=O)(=O)c2ccc(C(C)(C)N)cc2)no1 [compound 970, N-((1R,3r,5S)-8-((4-(2-aminopropan-2-yl)phenyl)sulfonyl)-8-azabicyclo[3.2.1]octan-3-yl)-5-ethylisoxazole-3-carboxamide] | 748 nM | 89.3 nM
6 |  |  | O=C(N[C@H]1C[C@H]2CC[C@@H](C1)N2S(=O)(=O)C[C@H]1CCCCN1)c1cc(C2CC2)on1 [compound 971, 5-cyclopropyl-N-((1R,3R,5S)-8-((((R)-piperidin-2-yl)methyl)sulfonyl)-8-azabicyclo[3.2.1]octan-3-yl)isoxazole-3-carboxamide] | 466 nM | 90.8 nM
7 |  |  | C[C@H]1C[C@@H](NC(=O)c2cc(C3CC3)on2)CCN1S(=O)(=O)N1CCC(NC(C)(C)c2ccccc2)CC1 [compound 972, 5-cyclopropyl-N-((2S,4S)-2-methyl-1-((4-((2-phenylpropan-2-yl)amino)piperidin-1-yl)sulfonyl)piperidin-4-yl)isoxazole-3-carboxamide] | 1270 nM | 93.3 nM
8 |  |  | CN(CCN1CCOCC1)C1CCN(S(=O)(=O)N2[C@@H]3CC[C@H]2C[C@@H](NC(=O)c2cc(C4CC4)on2)C3)CC1 [compound 973, 5-cyclopropyl-N-((1R,3r,5S)-8-((4-(methyl(2-morpholinoethyl)amino)piperidin-1-yl)sulfonyl)-8-azabicyclo[3.2.1]octan-3-yl)isoxazole-3-carboxamide] | 1020 nM | 95.3 nM
9 |  |  | CC[C@@H]1CN(S(=O)(=O)N2CC[C@H](NC(=O)c3cc(C4CC4)on3)C[C@@H]2C)CCN1 [compound 974, 5-cyclopropyl-N-((2S,4S)-1-(((R)-3-ethylpiperazin-1-yl)sulfonyl)-2-methylpiperidin-4-yl)isoxazole-3-carboxamide] | 807 nM | 99 nM
10 |  |  | CC(C)C1CNCCN1S(=O)(=O)N1CC[C@H](NC(=O)c2cc(C3CC3)on2)C[C@@H]1C (stereo partly drawn) [compound 975, 5-cyclopropyl-N-((2S,4S)-1-((2-isopropylpiperazin-1-yl)sulfonyl)-2-methylpiperidin-4-yl)isoxazole-3-carboxamide] | 914 nM | 101 nM
11 |  |  | CN1CCCC[C@H]1CS(=O)(=O)N1[C@@H]2CC[C@H]1C[C@@H](NC(=O)c1cc(C3CC3)on1)C2 [compound 976, 5-cyclopropyl-N-((1R,3S,5S)-8-((((S)-1-methylpiperidin-2-yl)methyl)sulfonyl)-8-azabicyclo[3.2.1]octan-3-yl)isoxazole-3-carboxamide] | 555 nM | 105 nM
12 |  |  | CN1CC2CCC(C1)N2S(=O)(=O)N1[C@@H]2CC[C@H]1C[C@@H](NC(=O)c1cc(C3CC3)on1)C2 [compound 977, 5-cyclopropyl-N-((1R,3r,5S)-8-((3-methyl-3,8-diazabicyclo[3.2.1]octan-8-yl)sulfonyl)-8-azabicyclo[3.2.1]octan-3-yl)isoxazole-3-carboxamide] | 742 nM | 107 nM
13 |  |  | CC(C)(NC1CCN(S(=O)(=O)N2[C@@H]3CC[C@H]2C[C@@H](NC(=O)c2cc(C4CC4)on2)C3)CC1)c1ccccc1 [compound 978, 5-cyclopropyl-N-((1R,3r,5S)-8-((4-((2-phenylpropan-2-yl)amino)piperidin-1-yl)sulfonyl)-8-azabicyclo[3.2.1]octan-3-yl)isoxazole-3-carboxamide] | 1330 nM | 117 nM
14 |  |  | CN1CCC[C@H]1CS(=O)(=O)N1[C@@H]2CC[C@H]1C[C@@H](NC(=O)c1cc(C3CC3)on1)C2 [compound 979, 5-cyclopropyl-N-((1R,3S,5S)-8-((((S)-1-methylpyrrolidin-2-yl)methyl)sulfonyl)-8-azabicyclo[3.2.1]octan-3-yl)isoxazole-3-carboxamide] | 436 nM | 119 nM
15 |  |  | C[C@H]1C[C@@H](NC(=O)c2cc(C3CC3)on2)CCN1S(=O)(=O)N1CCN(C)C[C@@H]1C [compound 980, 5-cyclopropyl-N-((2S,4S)-1-(((S)-2,4-dimethylpiperazin-1-yl)sulfonyl)-2-methylpiperidin-4-yl)isoxazole-3-carboxamide] | 697 nM | 120 nM
16 |  |  | O=C(N[C@H]1C[C@H]2CC[C@@H](C1)N2S(=O)(=O)[C@@H]1CCCN(CCO)C1)c1cc(C2CC2)on1 [compound 981, 5-cyclopropyl-N-((1R,3R,5S)-8-(((R)-1-(2-hydroxyethyl)piperidin-3-yl)sulfonyl)-8-azabicyclo[3.2.1]octan-3-yl)isoxazole-3-carboxamide] | 466 nM | 127 nM
17 |  |  | CN1CCCC1CS(=O)(=O)N1[C@@H]2CC[C@H]1C[C@@H](NC(=O)c1cc(C3CC3)on1)C2 (stereo partly drawn) [compound 982, 5-cyclopropyl-N-((1R,3r,5S)-8-(((1-methylpyrrolidin-2-yl)methyl)sulfonyl)-8-azabicyclo[3.2.1]octan-3-yl)isoxazole-3-carboxamide] | 819 nM | 134 nM
18 |  |  | CC[C@H]1CNCCN1S(=O)(=O)N1CC[C@H](NC(=O)c2cc(C3CC3)on2)C[C@@H]1C [compound 983, 5-cyclopropyl-N-((2S,4S)-1-(((S)-2-ethylpiperazin-1-yl)sulfonyl)-2-methylpiperidin-4-yl)isoxazole-3-carboxamide] | 931 nM | 142 nM
19 |  |  | C[C@H]1C[C@@H](NC(=O)c2cc(C3CC3)on2)CCN1S(=O)(=O)N1CCNC[C@@H]1c1ccccc1 [compound 984, 5-cyclopropyl-N-((2S,4S)-2-methyl-1-(((S)-2-phenylpiperazin-1-yl)sulfonyl)piperidin-4-yl)isoxazole-3-carboxamide] | 1850 nM | 142 nM
20 |  |  | O=C(N[C@H]1C[C@H]2CC[C@@H](C1)N2S(=O)(=O)[C@H]1CCCN(CCO)C1)c1cc(C2CC2)on1 [compound 985, 5-cyclopropyl-N-((1R,3S,5S)-8-(((S)-1-(2-hydroxyethyl)piperidin-3-yl)sulfonyl)-8-azabicyclo[3.2.1]octan-3-yl)isoxazole-3-carboxamide] | 708 nM | 155 nM
21 |  |  | COCCNCc1ccc(S(=O)(=O)N2[C@@H]3CC[C@H]2C[C@@H](NC(=O)c2cc(C4CC4)on2)C3)cc1 [compound 986, 5-cyclopropyl-N-((1R,3r,5S)-8-((4-(((2-methoxyethyl)amino)methyl)phenyl)sulfonyl)-8-azabicyclo[3.2.1]octan-3-yl)isoxazole-3-carboxamide] | 807 nM | 156 nM
22 |  |  | CCc1cc(C(=O)N[C@@H]2CCN(S(=O)(=O)c3ccc(C(C)(C)N)cc3)[C@@H](C)C2)no1 [compound 987, N-((2S,4R)-1-((4-(2-aminopropan-2-yl)phenyl)sulfonyl)-2-methylpiperidin-4-yl)-5-ethylisoxazole-3-carboxamide] | 776 nM | 158 nM
23 |  |  | CN(C)C(C)(C)c1ccc(S(=O)(=O)N2[C@@H]3CC[C@H]2C[C@@H](NC(=O)c2cc(C4CC4)on2)C3)cc1 [compound 988, 5-cyclopropyl-N-((1R,3r,5S)-8-((4-(2-(dimethylamino)propan-2-yl)phenyl)sulfonyl)-8-azabicyclo[3.2.1]octan-3-yl)isoxazole-3-carboxamide] | 1670 nM | 158 nM
24 |  |  | C[C@H]1C[C@@H](NC(=O)c2cc(C3CC3)on2)CCN1S(=O)(=O)CC1CCCCN1 (stereo partly drawn) [compound 989, 5-cyclopropyl-N-((2S,4S)-2-methyl-1-((piperidin-2-ylmethyl)sulfonyl)piperidin-4-yl)isoxazole-3-carboxamide] | 1160 nM | 175 nM
25 |  |  | O=C(N[C@H]1C[C@H]2CC[C@@H](C1)N2S(=O)(=O)N1CC2CCC(C1)N2CCC(F)(F)F)c1cc(C2CC2)on1 [compound 990, 5-cyclopropyl-N-((1R,3r,5S)-8-((8-(3,3,3-trifluoropropyl)-3,8-diazabicyclo[3.2.1]octan-3-yl)sulfonyl)-8-azabicyclo[3.2.1]octan-3-yl)isoxazole-3-carboxamide] | 935 nM | 184 nM
26 |  |  | CCC[C@H]1C[C@@H](NC(=O)c2cc(C3CC3)on2)CCN1S(=O)(=O)CC1CCN(C)CC1 [compound 991, 5-cyclopropyl-N-((2S,4S)-1-(((1-methylpiperidin-4-yl)methyl)sulfonyl)-2-propylpiperidin-4-yl)isoxazole-3-carboxamide] | 2190 nM | 187 nM
